The source of these data is patent publication US20080085264A1, “METHODS FOR ENHANCING STEM CELL ENGRAFTMENT DURING TRANSPLANTATION” (priority 2003, published 2008).

Experiment [1] deals with C57BL/6 mice. The experiment in a line: G-CSF induced mobilization of HSC/HPC in C57BL/6 mice (progenitor cell assays of peripheral blood). Format: in vivo, mouse. Conditions: for effect of scrambled peptides on mobilization: C57BL/6, data not shown. As for the experimental part:
(§1) Mobilization was achieved by treating mice with 2.5 μg (micrograms) G-CSF/mouse 2×/day s.c. for 2 days (Broxmeyer H E, et al. J Exp Med. 1999; 189:1987-1992). Mice simultaneously treated with a specific CD26 inhibitor also underwent treatment with either 5 μmol Diprotin A/mouse 2×/day s.c. for 2 days or 5 μmol Val-Pyr/mouse 2×/day s.c. for 2 days. Diprotin A was obtained commercially (Peptides International, Louisville, Ky.) and Val-Pyr was obtained as a gift from Nicolai Wagtmann (Novo Nordisk, Denmark). After either G-CSF or G-CSF plus CD26 inhibitor treatment peripheral blood cells were collected and total cellular nuclearity was measured and progenitor cell assays were performed using total peripheral blood cells.
(§2) One-hundred thousand mouse G-CSF mobilized peripheral blood cells were plated in triplicate for colony formation by CFU-GM, BFU-E, and CFU-GEMM and scored at 7 days incubation as previously described (Cooper S, Broxmeyer H E. Measurement of interleukin-3 and other hematopoietic growth factors, such as GM-CSF, G-CSF, M-CSF, erkythropoietin and the potent co-stimulating cytokines steel factor and FLt-3 ligand. In: Coligan J E K A, Margulies D H, Shevach E M, Strober E, Coico R, ed. Current protocols in immunology. New York: John Wiley & Sons; 1996:6.4.1-6.4.12). Cells were plated for colony formation in 1% methylcellulose culture medium containing 30% FBS, 1 U/ml recombinant(r) human Epo, 0.1 mM Hemin, 5% Pokeweed Mitogen Spleen Conditioned Media (PWMSCM), and 50 ng/ml rmouse Steel Factor (=Stem Cell Factor, SCF).

In experiment [2] the test system is BoyJ recipient mice. The experiment in a line: Non-competitive long-term engraftment. It counts as in vivo, mouse. Conditions: six months post transplant, P<0.05, n=5. As for the experimental part:
Control C57BL/6 (CD45.2^+) or CD26 inhibitor treated C57BL/6 (CD45.2^+) LD donor BM cells were transplanted by tail-vein injection into lethally irradiated (1100 cGy split dose) congenic BoyJ (CD45.1^+) female recipient mice (Haneline L S, et al. Blood. 1999; 94:1-8). Contribution of donor cells was obtained by measuring the number of donor and residual recipient lymphocytes in the peripheral blood. The % donor contribution was calculated by flow cytometric analysis of peripheral blood lymphocytes found in the recipient mouse peripheral blood by measuring CD45.1^+ and CD45.2^+ on cells isolated from the recipient mice 1-6 months post transplant. No less than five mice from each recipient group were analyzed, each one having received a transplant of 5×10^5 pooled LD donor BM cells. Comparisons between treatment groups were made using a two-tailed Student's t-test and data was plotted as mean (M)±standard error of the mean (SEM).

The subject of experiment [3] is BoyJ recipient mice. The experiment in a line: Short-term homing of donor Sca-1+lin- cells to recipient bone marrow. It counts as in vivo, mouse. The method, then: Control C57BL/6 (CD45.2^+), CD26 inhibitor treated C57BL/6 (CD45.2^+), or CD26^−/− (CD45.2^+) sorted Sca-1^+lin^− or LD donor BM cells were transplanted by tail-vein injection into lethally irradiated (1100 cGy split dose) congenic BoyJ (CD45.1^+) female recipient mice (Haneline L S, et al. Blood. 1999; 94:1-8.) Contribution of Sca^+lin^− donor cells in the context of Sca-1^+lin^− recipient cells was calculated by flow cytometric analysis of cells found in the recipient mouse BM by measuring CD45.1+ and CD45.2^+ on Sca-1^+lin^− LD cells isolated from the recipient mice 24 hours post transplant. […] Comparisons between treatment groups were made using a two-tailed Student's t-test and data was plotted as mean (M)±standard error of the mean (SEM).

The subject of experiment [4] is C57BL/6 mice. The experiment in a line: G-CSF induced mobilization of HSC/HPC in C57BL/6 mice (progenitor cell assays of peripheral blood). It counts as in vivo. To be noted: 5 μmol/mouse 2×/day s.c. alone, without G-CSF.
For experiment [5], the system named is DBA/2 mice. The experiment in a line: G-CSF induced mobilization of HSC/HPC in DBA/2 mice (progenitor cell assays of peripheral blood). Format: in vivo, mouse. To be noted: without G-CSF.
A further experiment has as its system BoyJ irradiated mice. The experiment in a line: Competitive repopulation assay. It counts as in vivo, mouse. Conditions: six months post transplant, 5×10^5 or 2.5×10^5 donor cells vs 5×10^5 competitor BoyJ cells. From the text: Donor LDBM cells (5×10^5) from representative mice from each test group were transplanted into lethally irradiated BoyJ mice (expressing CD45.1) Quantitative contribution to chimerism was obtained 2-6 months post-transplantation in the same manner described for long-term engraftment assays.
Eight week old female recipient mice were lethally irradiated (1100 cGy split dose) prior to transplantation as previously described (Haneline L S, et al. Blood. 1999; 94:1-8). Limiting dilutions of donor LD BM cells (5×10^5, 2.5×10^5, 1.25×10^5, and 0.625×10^5 cells) from control C57Bl/6 mice, CD26-inhibitor treated LD BM cells, or untreated LD BM cells from CD26^−/− mice (all expressing CD45.2) are co-transplanted with a constant number (5×10^5) of pooled competitive BM cells from congenic BoyJ mice (expressing CD45.1), into BoyJ irradiated mice. To determine quantitatively the relative cell contribution to chimerism of each test cell population tail-vein blood samples were obtained post-transplantation each month for three months and CD45.1 and CD45.2 was measured by flow-cytometry. Cells were divided into CD26 inhibitor (either Diprotin A or Val-Pyr) treated or untreated groups obtained from normal C57BL/6 mice and untreated cells obtained from CD26^−/− mice. […]

Experiment [6] relates to DBA/2 mice. The experiment can be described thus: G-CSF induced mobilization of HSC/HPC in DBA/2 mice (progenitor cell assays of peripheral blood). Format: in vivo, mouse. As for the experimental part: as §1, §2
Another experiment relates to CD26-/- mice. The experiment can be described thus: G-CSF induced mobilization of progenitors in CD26-/- mice. To be noted: CD26-/- mice on C57Bl/6 background. It counts as in vivo, mouse. The method, then:
as §1
One-hundred thousand mouse G-CSF mobilized peripheral blood cells were plated in triplicate for colony formation by CFU-GM, BFU-E, and CFU-GEMM and scored at 7 days incubation as previously described (Cooper S, Broxmeyer H E. Measurement of interleukin-3 and other hematopoietic growth factors, such as GM-CSF, G-CSF, M-CSF, erkythropoietin and the potent co-stimulating cytokines steel factor and FLt-3 ligand. In: Coligan J E K A, Margulies D H, Shevach E M, Strober E, Coico R, ed. Current protocols in immunology. New York: John Wiley & Sons; 1996:6.4.1-6.4.12). […]

Setting [7] is: inhibitor 5 μmol/mouse 2×/day s.c. during G-CSF mobilization, C57BL/6.
[8] abbreviates: inhibitor treatment during G-CSF mobilization.
Setting [9] is: 2.5 μg G-CSF/mouse 2×/day s.c., C57BL/6.

As to `CC(C)[C@H](N)C(=O)N1CCCC1` [Val-Pyr, Valine-Pyrrolidide], in the experiment with C57BL/6 mice [1] (setting [7]), the “reduction in BFU-E compared to G-CSF alone” value turned out to be 22%, the “reduction in CFU-GEMM compared to G-CSF alone” value stood at 62% and the “reduction in CFU-GM compared to G-CSF alone” value is reported as 55%. The “donor cell contribution to the formation of peripheral blood leukocytes” value in the experiment with BoyJ recipient mice [2] is given as “Increased donor cell contribution”. Further, the “short-term homing of donor cells” value with BoyJ recipient mice [3] (donor LDBM unit treated prior to transplant, P<0.01, n=6) is recorded as “significant increase in short-term homing”. Besides, the “effect on the mobilization of progenitors, inhibitor alone” value with C57BL/6 mice [4] is given as “little or no effect”. In addition, in the experiment on DBA/2 mice [5], the “effect on the mobilization of progenitors, inhibitor alone” value is recorded as “little or no effect”. Further, the “donor contribution to chimerism” value in the experiment on BoyJ irradiated mice is given as “increased donor contribution to chimerism”. In the experiment on DBA/2 mice [6] (setting [8]), the “reduction in BFU-E compared to G-CSF alone” value came out at 49%, the “reduction in CFU-GEMM compared to G-CSF alone” value was determined as 56% and the “reduction in CFU-GM compared to G-CSF alone” value is on record as 52%.
As to Pro-Ile-Ile, the “effect of scrambled peptides on mobilization” value in the experiment on C57BL/6 mice [1] was “no effect”.
Regarding `c1cc(CN2CCCNCCNCCCNCC2)ccc1CN1CCCNCCNCCCNCC1` [AMD3100], in the experiment with BoyJ recipient mice [3] (10×10^6 LDBM donor cells treated with AMD3100 for 15 minutes prior to transplantation), the “effect on the increase in homing efficiency generated by inhibition or loss of CD26” value is listed as “reversed the increase in homing efficiency”. Moreover, the “homing efficiency compared to control LDBM cells” value with BoyJ recipient mice [3] (AMD3100 treatment alone, no CD26 inhibitor) was “reduction in homing efficiency”.
As for Ile-Ile-Pro, the “effect of scrambled peptides on mobilization” value with C57BL/6 mice [1] is “no effect”.

B1: G-CSF: cytokine used to induce mobilization of HSC/HPC (protein, UniProt P09919 31-207, looked up)
Granulocyte …: TPLGPASSLPQSFLLKCLEQVRKIQGDGAALQEKLVSECATYKLCHPEELVLLGHSLGIPWAPLSSCPSQALQLAGCLSQLHSGLFLYQGLLQALEGISPELGPTLDTLQLDVADFATTIWQQMEELGMAPALQPTQGAMPAFASAFQRRAGGVLVASHLQSFLEVSYRVLRHLAQP
Regarding B1, in the experiment on C57BL/6 mice [1] (setting [9]), the “BFU-E mobilized to peripheral blood” value came to 1027±107 BFU-E/ml, the “CFU-GEMM mobilized to peripheral blood” value is listed as 442±35 CFU-GEMM/ml and the “CFU-GM mobilized to peripheral blood” value turned out to be 2348±249 CFU-GM/ml. In addition, the “mobilization of progenitor cells by G-CSF” value in the experiment on CD26-/- mice is given as “low, but significant, mobilization”. In addition, in the experiment with DBA/2 mice [6] (2.5 μg G-CSF/mouse 2×/day s.c.), the “BFU-E mobilized to peripheral blood” value is reported as 2219±141 BFU-E/ml, the “CFU-GEMM mobilized to peripheral blood” value was determined as 1186±163 CFU-GEMM/ml and the “CFU-GM mobilized to peripheral blood” value worked out at 8145±1038 CFU-GM/ml.
